The source of these data is patent US12234211B2, “Cycloolefin substituted heteroaromatic compounds and their use” (HUTCHISON MEDIPHARMA LIMITED, priority 2017, dated 2025).

A value given as a limit tells only on which side of the number the result lay.

Usually IC50 stands for the concentration at which inhibition is half-maximal.

One assay has as its target T1, IDH1-R132H (Homo sapiens, UniProt O75874, R132H).
T1 construct: expressed in transfected cells; host or cells: U87MG cells (U87MGR132H)
In words: Fluorescent determination of IDH1-R132H cell activity (2-HG in U87MGR132H cells). The class given is cell-based. Particulars: 2-HG inhibition in U87MGR132H cells transfected with IDH1-R132H mutant plasmid.

Another assay addresses T2, IDH2-R140Q (Homo sapiens, UniProt P48735, R140Q).
T2 construct: expressed in transfected cells
T2 sequence (P48735 40-452 R140Q): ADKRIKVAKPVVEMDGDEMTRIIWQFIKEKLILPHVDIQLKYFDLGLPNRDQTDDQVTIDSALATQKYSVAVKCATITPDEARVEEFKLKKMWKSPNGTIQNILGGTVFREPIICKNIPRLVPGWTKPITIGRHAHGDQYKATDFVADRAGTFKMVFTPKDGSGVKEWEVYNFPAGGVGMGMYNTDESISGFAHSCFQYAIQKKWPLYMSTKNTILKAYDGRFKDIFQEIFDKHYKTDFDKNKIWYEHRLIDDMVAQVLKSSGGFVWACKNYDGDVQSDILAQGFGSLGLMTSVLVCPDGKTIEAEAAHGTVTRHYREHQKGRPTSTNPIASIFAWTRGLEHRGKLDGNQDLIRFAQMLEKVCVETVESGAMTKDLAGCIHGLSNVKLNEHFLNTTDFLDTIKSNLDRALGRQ
Description: Fluorescent determination of IDH2-R140Q cell activity (2-HG in U87MGR140Q cells). The class given is cell-based. Particulars: 72 hours incubation, read-out: IC50 (2-HG inhibition). The method, then: Enzyme reaction solution: 1 mM nicotinamide adenine dinucleotide (NAD), 0.6 ng/μL D-2-hydroxyglutarate dehydrogenase (D2HGDH), 0.8 U/mL lipoamidase dehydrogenase (Diaphorase) and 60 μM Resazurin in 40 mM Tris.HCl pH 8.8 assay buffer.
Standard curve stock solution: The standard of 2-HG sodium salt was serially diluted in serum-free MEM medium to make a standard curve stock solution.
100 μL of U87MGR140Q cells were seeded at a density of 6×10^4/mL per well in a 96-well plate a.
From each well of 96-well plate a, 50 μL of the culture supernatant was transferred to the corresponding well of 96-well plate b; at the same time, 50 μL of standard curve stocking solution was added to other wells of 96-well plate b. Then 10 μl of 360 mM hydrochloric acid was added to all the wells. After shaking and mixing, the plate was placed on ice for 10 minutes, and then 10 μl of 420 mM Tris-base was added. After shaking and mixing, the plate was placed on ice for additional 5 minutes. Then the plate was centrifuged at 2500 rpm for 10 minutes.
After centrifuging, from each well of 96-well plate b, 20 μL of the supernatant was transferred to 96-well plate c. An additional 80 μL of the enzyme reaction solution was added to each well and incubated at 25° C. for 90 minutes.
A standard curve of the fluorescence value vs. the corresponding 2-HG concentration was made, and the 2-HG concentration corresponding to each concentration point of the compound was calculated, then the inhibition ratio was calculated, and the data was analyzed using XLfit5 (ID Business Solutions Limited) software to obtain the IC50 value.
The inhibition ratio was calculated as follows: Inhibition Ratio (IH %)=(1-2-HG concentration of test compound treated cells/2-HG concentration of control cells)×100%.

T1 sequence (O75874 whole entry R132H): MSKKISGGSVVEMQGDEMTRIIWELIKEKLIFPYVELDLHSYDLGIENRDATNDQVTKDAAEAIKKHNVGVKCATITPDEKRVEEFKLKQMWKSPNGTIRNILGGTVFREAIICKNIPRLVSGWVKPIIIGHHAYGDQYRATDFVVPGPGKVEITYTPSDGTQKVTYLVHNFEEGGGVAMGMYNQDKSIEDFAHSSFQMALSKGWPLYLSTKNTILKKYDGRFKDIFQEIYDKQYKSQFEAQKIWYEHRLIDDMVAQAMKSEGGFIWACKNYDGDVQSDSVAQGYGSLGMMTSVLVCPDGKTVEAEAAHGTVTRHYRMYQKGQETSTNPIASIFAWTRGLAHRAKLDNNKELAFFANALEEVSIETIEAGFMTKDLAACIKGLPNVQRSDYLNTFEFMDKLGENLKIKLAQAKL

As to `[2H]C1(O)C(F)=C(c2nc(NC3CC3)nc(N[C@H](C)C(F)(F)F)n2)CCC1(F)F` (mixture of isomers) [Compound 279], the IC50 at IDH1-R132H came out at 9430 nM; at IDH2-R140Q, 170 nM.

As for `C[C@@H](Nc1nc(N[C@H](C)C(F)(F)F)nc(C2=CC(O)C(F)(F)CC2)n1)C(F)(F)F` (mixture of isomers) [Compound 281], the 50% inhibitory concentration (IC50) came to 455 nM at IDH1-R132H and 690 nM on IDH2-R140Q.

For the molecule `[2H]C1(O)C=C(c2nc(N[C@H](C)C(F)(F)F)nc(N[C@H](C)C(F)(F)F)n2)CCC1(F)F` (mixture of isomers) [Compound 282], the half-inhibitory concentration (IC50) on IDH1-R132H was determined as 444 nM; at IDH2-R140Q, 343 nM.

For the molecule `C[C@H](Nc1nc(N[C@@H](C)C(F)(F)F)nc(C2=C(F)C(O)C(F)(F)CC2)n1)C(F)(F)F` (mixture of isomers) [Compound 283], the IC50 at IDH1-R132H was found to be 1320 nM; on IDH2-R140Q, 174 nM.

With `C[C@H](Nc1nc(NOC(C)(C)C)nc(C2=C(F)C(O)C(F)(F)CC2)n1)C(F)(F)F` (mixture of isomers) [Compound 293], the IC50 is over 10000 nM against IDH1-R132H and 637 nM at IDH2-R140Q.

With `C[C@@H](Nc1nc(NOC(C)(C)C)nc(C2=C(F)C(O)C(F)(F)CC2)n1)C(F)(F)F` (mixture of isomers) [Compound 294], the concentration for half-maximal inhibition (IC50) against IDH1-R132H was 9180 nM; on IDH2-R140Q it was 425 nM.

For `CONc1nc(N[C@H](C)C(F)(F)F)nc(C2=C(F)C(O)C(F)(F)CC2)n1` (mixture of isomers) [Compound 297, 2,6,6-Trifluoro-3-(4-(methoxyamino)-6-(((R)-1,1,1-trifluoropropan-2-yl)amino)-1,3,5-triazin-2-yl)cyclohex-2-en-1-ol], the IC50 at IDH1-R132H is over 10000 nM; on IDH2-R140Q it was 2660 nM.

For the molecule `C[C@H](Nc1nc(N[C@H](C)C(F)(F)F)nc(C2=C(F)C(O)CCC2)n1)C1CC1` (mixture of isomers) [Compound 8], the IC50 is 1220 nM on IDH1-R132H and 216 nM at IDH2-R140Q.

As to `C[C@@H](Nc1nc(NCC2CC(F)(F)C2)nc(C2=C(F)C(O)CCC2)n1)C(F)(F)F` (mixture of isomers) [Compound 13], the values for the concentration for half-maximal inhibition (IC50) at IDH1-R132H and at IDH2-R140Q were 2080 nM and 373 nM, respectively.

With `C[C@H](Nc1nc(N[C@@H](C)C(F)(F)F)nc(C2=C(F)C(O)CCC2)n1)C(F)(F)F` (mixture of isomers) [Compound 14], the IC50 at IDH1-R132H was 1330 nM; on IDH2-R140Q, 230 nM.

For `CCC(Nc1nc(N[C@H](C)C(F)(F)F)nc(C2=C(F)C(O)CCC2)n1)C(F)(F)F` (mixture of isomers) [Compound 15], the half-maximal inhibitory concentration (IC50) at IDH1-R132H is 619 nM; on IDH2-R140Q, 259 nM.

As for `C[C@@H](Nc1nc(NC2CC(F)(F)C2)nc(C2=C(F)C(O)CCC2)n1)C(F)(F)F` (mixture of isomers) [Compound 31], the IC50 came out at 280 nM on IDH1-R132H and 110 nM at IDH2-R140Q.

For the molecule `C[C@H](Nc1nc(NC2CC(F)(F)C2)nc(C2=C(F)C(O)CCC2)n1)C(F)(F)F` (mixture of isomers) [Compound 32], the half-inhibitory concentration (IC50) on IDH1-R132H is 610 nM; on IDH2-R140Q, 80 nM.

`CC(C)(C)ONc1nc(Nc2ccc3sncc3c2)nc(C2=C(F)C(O)CCC2)n1` (racemic) [Compound 34]: the IC50 on IDH1-R132H is over 10000 nM; at IDH2-R140Q it was 145 nM.

In the case of `C[C@@H](Nc1nc(NC2CCCC2)nc(C2=CC(O)CCC2)n1)C(F)(F)F` (mixture of isomers) [Compound 130], the figures for the IC50 against IDH1-R132H and on IDH2-R140Q were 733 nM and 67 nM, respectively.

Turning to `CC(C)CNc1nc(N[C@H](C)C(F)(F)F)nc(C2=CC(O)CCC2)n1` (mixture of isomers) [Compound 134], the IC50 came out at 2470 nM against IDH1-R132H and 100 nM on IDH2-R140Q.

As for `C[C@@H](Nc1nc(NC2CCCCC2)nc(C2=CC(O)CCC2)n1)C(F)(F)F` (mixture of isomers) [Compound 136], the IC50 on IDH1-R132H worked out at 1340 nM; on IDH2-R140Q it was 296 nM.

Consider `C[C@@H](Nc1nc(N[C@H](C)C(F)(F)F)nc(C2=C(F)C(O)CCC2)n1)c1ccccc1` (mixture of isomers) [Compound 152, 2-Fluoro-3-(4-(((R)-1-phenylethyl)amino)-6-(((R)-1,1,1-trifluoropropan-2-yl)amino)-1,3,5-triazin-2-yl)cyclohex-2-en-1-ol], for which the 50% inhibitory concentration (IC50) against IDH1-R132H is 2010 nM; at IDH2-R140Q, 300 nM.

As for `C[C@@H](Nc1nc(NC2CCCC2(F)F)nc(C2=C(F)C(O)CCC2)n1)C(F)(F)F` (mixture of isomers) [Compound 166], the figures for the IC50 against IDH1-R132H and at IDH2-R140Q were 1350 nM and 180 nM, respectively.

Take `C[C@@H](Nc1nc(NCC2CCC2(F)F)nc(C2=C(F)C(O)CCC2)n1)C(F)(F)F` (mixture of isomers) [Compound 171]: the IC50 at IDH1-R132H turned out to be 1570 nM; on IDH2-R140Q, 268 nM.

For the molecule `CC(Nc1nc(N[C@H](C)C(F)(F)F)nc(C2=C(F)C(O)CCC2)n1)C(F)F` (mixture of isomers) [Compound 174], the IC50 was determined as 343 nM at IDH1-R132H and 96 nM at IDH2-R140Q.

For the molecule `CC(Nc1nc(N[C@H](C)C(F)(F)F)nc(C2=C(F)C(O)CCC2)n1)C(C)(F)F` (mixture of isomers) [Compound 175], the concentration for half-maximal inhibition (IC50) against IDH1-R132H came to 495 nM; on IDH2-R140Q it was 291 nM.

In the case of `CC(C)Nc1nc(Nc2ccc3ccnn3c2)nc(C2=C(F)C(O)CCC2)n1` (racemic) [Compound 200], the half-inhibitory concentration (IC50) was over 10000 nM on IDH1-R132H and 632 nM at IDH2-R140Q.

For `CC(C)Nc1nc(Nc2ccc3nscc3c2)nc(C2=C(F)C(O)CCC2)n1` (racemic) [Compound 229], the IC50 on IDH1-R132H was over 10000 nM; at IDH2-R140Q, 383 nM.

Turning to `C[C@@H](Nc1nc(N[C@H](C)C(F)(F)F)nc(C2=C(F)C(=O)C(F)CC2)n1)C(F)(F)F` (mixture of isomers) [Compound 242, 3-(4,6-Bis(((R)-1,1,1-trifluoropropan-2-yl)amino)-1,3,5-triazin-2-yl)-2,6-difluoro-cyclohex-2-en-1-one], the IC50 against IDH1-R132H worked out at 3520 nM; on IDH2-R140Q, 802 nM.

For the molecule `CC(C)Nc1nc(N[C@H](C)C(F)(F)F)nc(C2=C(F)C(O)C(F)CC2)n1` (single isomer, unassigned) [Compound 96], the IC50 stood at 2700 nM against IDH1-R132H and 675 nM on IDH2-R140Q.

For the molecule `C[C@@H](Nc1nc(N[C@H](C)C(F)(F)F)nc(C2=C(F)C(O)C(F)(F)CC2)n1)C(F)(F)F` (single isomer, unassigned) [Compound 198], the half-maximal inhibitory concentration (IC50) on IDH1-R132H was found to be 1890 nM; on IDH2-R140Q, 845 nM.

As for `OC1C(F)=C(c2nc(Nc3ccnc(C(F)(F)F)c3)nc(N3CC(F)(F)C3)n2)CCC1(F)F` (single isomer, unassigned) [Compound 221], the IC50 against IDH1-R132H is over 10000 nM; at IDH2-R140Q it was 487 nM.

With `C[C@@H](Nc1nc(NCC2CC2)nc(C2=C(F)C(O)C(F)CC2)n1)C(F)(F)F` (single isomer, unassigned) [Compound 225], the IC50 was 917 nM at IDH1-R132H and 36 nM at IDH2-R140Q.

For `C[C@@H](Nc1nc(NCC2CC2)nc(C2=C(F)C(O)C(F)CC2)n1)C(F)(F)F` (single isomer, unassigned) [Compound 226], the IC50 is 5120 nM against IDH1-R132H and 361 nM at IDH2-R140Q.

`C[C@@H](Nc1nc(NC2CC(F)(F)C2)nc(C2=C(F)C(O)C(F)CC2)n1)C(F)(F)F` (single isomer, unassigned) [Compound 228]: the IC50 against IDH1-R132H stood at 705 nM; on IDH2-R140Q, 417 nM.

For `CCCNc1nc(N[C@H](C)C(F)(F)F)nc(C2=C(F)C(O)[C@H](F)CC2)n1` (single isomer, unassigned) [Compound 230], the IC50 on IDH1-R132H is over 10000 nM; at IDH2-R140Q, 658 nM.

For `C[C@@H](Nc1nc(N[C@@H]2CCC(F)(F)C2)nc(C2=C(F)C(O)C(F)CC2)n1)C(F)(F)F` (single isomer, unassigned) [Compound 233], the IC50 on IDH1-R132H was 628 nM; at IDH2-R140Q it was 368 nM.

With `OC1CCCCC(c2nc(NC3CC(F)(F)C3)nc(NC3CC(F)(F)C3)n2)=C1F` (stereo not drawn) [Compound 39, (*)3-(4,6-Bis((3,3-difluorocyclobutyl)amino)-1,3,5-triazin-2-yl)-2-fluorocyclohept-2-en-1-ol], the results for the IC50 at IDH1-R132H and at IDH2-R140Q were 1910 nM and 164 nM, respectively.

`C[C@@H](Nc1nc(NC2CC(F)(F)C2)nc(C2=C(F)C(O)CCCC2)n1)C(F)(F)F` (stereo partly drawn) [Compound 40]: the values for the concentration for half-maximal inhibition (IC50) on IDH1-R132H and on IDH2-R140Q were 450 nM and 106 nM, respectively.

For the molecule `C[C@@H](Nc1nc(NC(CF)CF)nc(C2=C(F)C(O)CCC2)n1)C(F)(F)F` (stereo partly drawn) [Compound 41], the IC50 against IDH1-R132H stood at 1630 nM; at IDH2-R140Q it was 297 nM.
